Source: publication PMC10825075, “Proteomic analysis of horse hair extracts provides no evidence for the existence of a hypoallergenic Curly Horse breed” (Clinical and Translational Allergy, 2024)

What was measured:
Equ c 1.0102 [1] = molecular target: T1, Equ c 1.0102 (Equus caballus, UniProt A0A3Q2HX90); experiment: fluorescent probe binding (excitation […] nm, emission […] nm)
T1 construct: mature protein, residues 16-187 (signal peptide removed), C-terminal His6 tag, codon-optimized synthetic cDNA in pET-21d(+), E. coli Rosetta-gami 2(DE3), purified by HisTrap
T1 sequence (A0A3Q2HX90 16-187): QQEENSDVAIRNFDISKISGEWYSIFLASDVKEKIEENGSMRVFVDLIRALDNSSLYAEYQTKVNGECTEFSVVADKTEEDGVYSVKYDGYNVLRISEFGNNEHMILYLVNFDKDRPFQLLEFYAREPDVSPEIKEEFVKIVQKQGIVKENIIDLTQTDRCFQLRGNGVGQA

Equ c 1.0102 [2] = molecular target: T1, Equ c 1.0102; experiment: as above; conditions: read-out: dissociation constant
Equ c 1.0102 [3] = molecular target: T1, Equ c 1.0102; experiment: competitive displacement of fluorescent probe 1-NPN, 12-point titration, one-site fit; type: binding

## c1ccc(Nc2cccc3ccccc23)cc1 [1-NPN]
Equ c 1.0102 [1]
  EC50: 5 µM
Equ c 1.0102 [2]
  Kd: 6.4 µM

## CC(C)CCCC(C)CCO (stereo not shown) [3,7-dimethyl-1-octanol]
Equ c 1.0102 [3]
  Ki: 0.6 µM

## CCCCCCCCCCO [1-decanol]
Equ c 1.0102 [3]
  Ki: 1.1 µM
